We go through 39 molecules from patent US20230002372A1, “AZAINDOLE CARBOXAMIDE COMPOUNDS FOR THE TREATMENT OF MYCOBACTERIAL INFECTIONS” (THE GLOBAL ALLIANCE FOR TB DRUG DEVELOPMENT, INC., priority 2019, published 2023).

Each structure is given as a SMILES string. Converted amounts (≈) assume the structure as drawn.

One test relates to M tb H37Rv. Kind of test: MIC determination against M tb H37Rv (green fluorescent protein reporter assay; MIC-MABA). The test is classed as cell-based, Mycobacterium tuberculosis. Conditions: M. tb H37Rv; 7H9 broth; 10 days exposure; MIC = lowest concentration inhibiting fluorescence by 90%. In general terms: A reporter such as luciferase makes a cellular process visible.
As for `Cc1cc(F)c2cc(C(=O)N[C@H]3C[C@H]4C[C@@H]([C@@H]3C)C4(C)C)[nH]c2n1` [MPL-043, 4-fluoro-6-methyl-N-[(1S,2S,3S,5R)-2,6,6-trimethylnorpinan-3-yl]-1H-pyrrolo[2,3-b]pyridine-2-carboxamide], the “M. TB H37Rv: MIC-MABA: MIC” value turned out to be 0.17 µg/mL.

Still in this test, the particulars now being: Mycobacterium tuberculosis, H37RV, 240 h, read-out: M. TB H37Rv: MIC-MABA: MIC, M. tb H37Rv; 7H9 broth; 10 days exposure; MIC = lowest concentration inhibiting fluorescence by 90%.
What is called MIC is the least concentration at which growth counts as inhibited. As to `Cc1ncc2[nH]c(C(=O)NC3CC[Si](C)(C)CC3)c(C)c2c1F` [MPL-352, N-(1,1-dimethylsilinan-4-yl)-4-fluoro-3,5-dimethyl-1H-pyrrolo[2,3-c]pyridine-2-carboxamide], the minimal inhibitory concentration (MIC) amounted to 0.122 µg/mL (≈ 0.366 µM).

`C[C@@H]1[C@@H](NC(=O)c2cc3c(F)cncc3[nH]2)C[C@H]2C[C@@H]1C2(C)C` [MPL-092, 4-fluoro-N-[(1S,2S,3S,5R)-2,6,6-trimethylnorpinan-3-yl]-1H-pyrrolo[2,3-c]pyridine-2-carboxamide]: the minimum inhibitory concentration (MIC) was determined as 1.2 µg/mL (≈ 3.8 µM).

For the molecule `Cc1c(C(F)(F)F)ncc2[nH]c(C(=O)NC3CC[Si](C)(C)CC3)cc12` [MPL-376, N-(1,1-dimethylsilinan-4-yl)-4-methyl-5-(trifluoromethyl)-1H-pyrrolo[2,3-c]pyridine-2-carboxamide], the minimum inhibitory concentration (MIC) was found to be 0.188 µg/mL (≈ 0.509 µM).

Turning to `O=C(NC1CCC2(CC1)CC2)c1cc2c(Cl)cncc2[nH]1` [MPL-163, 4-chloro-N-spiro[2.5]octan-6-yl-1H-pyrrolo[2,3-c]pyridine-2-carboxamide], the minimum inhibitory concentration (MIC) came to 0.64 µg/mL (≈ 2.11 µM).

On to `N#Cc1ccnc2[nH]c(C(=O)NC3CCCCCCC3)cc12` [MPL-036, 4-cyano-N-cyclooctyl-1H-pyrrolo[2,3-b]pyridine-2-carboxamide], for which the MIC was 0.08 µg/mL (≈ 0.27 µM).

Turning to `COc1ncc2[nH]c(C(=O)NC3CC[Si](C)(C)CC3)cc2c1C(F)(F)F` [MPL-452, N-(1,1-dimethylsilinan-4-yl)-5-methoxy-4-(trifluoromethyl)-1H-pyrrolo[2,3-c]pyridine-2-carboxamide], the MIC came out at 0.118 µg/mL (≈ 0.306 µM).

For the molecule `Cc1cc(Cl)c2cc(C(=O)NC3CCCC[Si](C)(C)CC3)[nH]c2n1` (stereo not shown) [MPL-275, 4-chloro-N-(1,1-dimethylsilocan-4-yl)-6-methyl-1H-pyrrolo[2,3-b]pyridine-2-carboxamide], the minimal inhibitory concentration (MIC) was 0.031 µg/mL (≈ 0.0852 µM).

Take `Cc1ncc2[nH]c(C(=O)NC3CCC[Si](C)(C)CC3)cc2c1F` (stereo not shown) [MPL-351, N-(1,1-dimethylsilepan-4-yl)-4-fluoro-5-methyl-1H-pyrrolo[2,3-c]pyridine-2-carboxamide]: the minimal inhibitory concentration (MIC) was 0.248 µg/mL (≈ 0.744 µM).

Consider `Cc1cc(Cl)c2cc(C(=O)NC3CC[Si]4(CCCCC4)CC3)[nH]c2n1` [MPL-277, 4-chloro-6-methyl-N-(6-silaspiro[5.5]undecan-3-yl)-1H-pyrrolo[2,3-b]pyridine-2-carboxamide], for which the minimum inhibitory concentration (MIC) came to 0.045 µg/mL (≈ 0.12 µM).

In the case of `Cc1nc2[nH]c(C(=O)NC3CCC[Si](C)(C)CCC3)cc2c(F)c1F` [MPL-301, N-(1,1-dimethylsilocan-5-yl)-4,5-difluoro-6-methyl-1H-pyrrolo[2,3-b]pyridine-2-carboxamide], the MIC was 0.015 µg/mL (≈ 0.041 µM).

Turning to `C[C@@H]1[C@@H](NC(=O)c2cc3cc(F)ncc3[nH]2)C[C@H]2C[C@@H]1C2(C)C` [MPL-128, 5-fluoro-N-[(1S,2S,3S,5R)-2,6,6-trimethylnorpinan-3-yl]-1H-pyrrolo[2,3-c]pyridine-2-carboxamide], the minimum inhibitory concentration (MIC) turned out to be 2.3 µg/mL (≈ 7.29 µM).

Regarding `Cc1cc(F)c2c(C)c(C(=O)NC3CC[Si]4(CCCCC4)CC3)[nH]c2n1` [MPL-281, 4-fluoro-3,6-dimethyl-N-(6-silaspiro[5.5]undecan-3-yl)-1H-pyrrolo[2,3-b]pyridine-2-carboxamide], the MIC stood at 0.0151 µg/mL (≈ 0.0404 µM).

As for `Cc1ccnc2[nH]c(C(=O)NC3CCCCCCC3)cc12` [MPL-031, N-cyclooctyl-4-methyl-1H-pyrrolo[2,3-b]pyridine-2-carboxamide], the MIC turned out to be 0.25 µg/mL (≈ 0.876 µM).

`O=C(NC12CCC(CC1)CC2)c1cc2c(Cl)cncc2[nH]1` [MPL-170, N-(4-bicyclo[2.2.2]octanyl)-4-chloro-1H-pyrrolo[2,3-c]pyridine-2-carboxamide]: the MIC is 0.1 µg/mL (≈ 0.329 µM).

Take `O=C(NC1CC[Si]2(CCCC2)CC1)c1cc2c(F)cncc2[nH]1` [MPL-254, 4-fluoro-N-(5-silaspiro[4.5]decan-8-yl)-1H-pyrrolo[2,3-c]pyridine-2-carboxamide]: the minimum inhibitory concentration (MIC) worked out at 0.2 µg/mL (≈ 0.603 µM).

For the molecule `CC1(C)[C@H]2C[C@H](NC(=O)c3cc4c(C#N)ccnc4[nH]3)[C@](C)(O)[C@@H]1C2` [MPL-215, 4-cyano-N-[(1R,2R,3S,5R)-2-hydroxy-2,6,6-trimethyl-norpinan-3-yl]-1H-pyrrolo[2,3-b]pyridine-2-carboxamide], the minimal inhibitory concentration (MIC) amounted to 1.4 µg/mL (≈ 4.14 µM).

On to `CC1(C)C2CCC1(C)C(NC(=O)c1cc3c(C(F)(F)F)cncc3[nH]1)C2` (stereo not shown) [MPL-190, 4-(trifluoromethyl)-N-(1,7,7-trimethylnorbornan-2-yl)-1H-pyrrolo[2,3-c]pyridine-2-carboxamide], for which the minimum inhibitory concentration (MIC) came out at 0.24 µg/mL (≈ 0.657 µM).

On to `O=C(NC1CCCCCCC1)c1cc2c(C3CC3)ccnc2[nH]1` [MPL-039, N-cyclooctyl-4-cyclopropyl-1H-pyrrolo[2,3-b]pyridine-2-carboxamide], for which the MIC was 0.39 µg/mL (≈ 1.25 µM).

For the molecule `Cc1nc2[nH]c(C(=O)NC3CC[Si](C)(C)CC3)cc2c(C)c1F` [MPL-237, N-(1,1-dimethylsilinan-4-yl)-5-fluoro-4,6-dimethyl-1H-pyrrolo[2,3-b]pyridine-2-carboxamide], the MIC stood at 0.047 µg/mL (≈ 0.141 µM).

On to `Cc1ncc2[nH]c(C(=O)NC3CCC(C)(C)CC3)cc2c1F` [MPL-141, N-(4,4-dimethylcyclohexyl)-4-fluoro-5-methyl-1H-pyrrolo[2,3-c]pyridine-2-carboxamide], for which the minimal inhibitory concentration (MIC) came out at 0.29 µg/mL (≈ 0.956 µM).

For `COc1cc(Cl)c2cc(C(=O)NC3CC[Si](C)(C)CC3)[nH]c2n1` [MPL-465, 4-chloro-N-(1,1-dimethylsilinan-4-yl)-6-methoxy-1H-pyrrolo[2,3-b]pyridine-2-carboxamide], the MIC was 0.008 µg/mL (≈ 0.0227 µM).

For `COc1ccnc2[nH]c(C(=O)NC3CCCCCCC3)cc12` [MPL-038, N-cyclooctyl-4-methoxy-1H-pyrrolo[2,3-b]pyridine-2-carboxamide], the MIC stood at 6.2 µg/mL (≈ 20.6 µM).

For `Cc1c(C(=O)NC2CC[Si](C)(C)CC2)[nH]c2cncc(F)c12` [MPL-226, N-(1,1-dimethylsilinan-4-yl)-4-fluoro-3-methyl-1H-pyrrolo[2,3-c]pyridine-2-carboxamide], the minimal inhibitory concentration (MIC) stood at 0.75 µg/mL (≈ 2.35 µM).

`O=C(NC1CC[Si]2(CCCC2)CC1)c1cc2c(F)c(C(F)(F)F)ncc2[nH]1` [MPL-367, 4-fluoro-N-(5-silaspiro[4.5]decan-8-yl)-5-(trifluoromethyl)-1H-pyrrolo[2,3-c]pyridine-2-carboxamide]: the minimal inhibitory concentration (MIC) was found to be 0.988 µg/mL (≈ 2.47 µM).

For the molecule `CC1(C)CCC(NC(=O)c2cc3c(Br)ccnc3[nH]2)CC1` [MPL-007, 4-bromo-N-(4,4-dimethylcyclohexyl)-1H-pyrrolo[2,3-b]pyridine-2-carboxamide], the MIC was 0.12 µg/mL (≈ 0.343 µM).

`Cc1cc(Cl)c2cc(C(=O)N[C@H]3CC[Si](C)(C)C3)[nH]c2n1` (single isomer, unassigned) [MPL-401B]: the minimal inhibitory concentration (MIC) came to 0.007 µg/mL (≈ 0.0217 µM).

`C[Si]1(C)CCC(NC(=O)c2cc3c(Cl)c(Cl)ncc3[nH]2)CC1` [MPL-349, 4,5-dichloro-N-(1,1-dimethylsilinan-4-yl)-1H-pyrrolo[2,3-c]pyridine-2-carboxamide]: the minimum inhibitory concentration (MIC) was found to be 0.068 µg/mL (≈ 0.191 µM).

For `O=C(NC1CCCCCCC1)c1cc2c(F)cncc2[nH]1` [MPL-093, N-cyclooctyl-4-fluoro-1H-pyrrolo[2,3-c]pyridine-2-carboxamide], the minimum inhibitory concentration (MIC) turned out to be 1.1 µg/mL (≈ 3.8 µM).

`C[C@@H]1[C@@H](NC(=O)c2cc3cc(Cl)ncc3[nH]2)C[C@H]2C[C@@H]1C2(C)C` [MPL-126, 5-chloro-N-[(1S,2S,3S,5R)-2,6,6-trimethylnorpinan-3-yl]-1H-pyrrolo[2,3-c]pyridine-2-carboxamide]: the MIC was found to be 3.1 µg/mL (≈ 9.34 µM).

In the case of `C[Si]1(C)CCC(NC(=O)c2cc3ccc(-c4cccnc4)nc3[nH]2)CC1` [MPL-389, N-(1,1-dimethylsilinan-4-yl)-6-(3-pyridyl)-1H-pyrrolo[2,3-b]pyridine-2-carboxamide], the minimal inhibitory concentration (MIC) is 0.216 µg/mL (≈ 0.593 µM).

Regarding `Cc1cc(Cl)c2cc(C(=O)N[C@H]3C[C@H]4C[C@H](C4(C)C)[C@@]3(C)O)[nH]c2n1` [MPL-218, 4-chloro-N-[(1R,2R,3S,5R)-2-hydroxy-2,6,6-trimethyl-norpinan-3-yl]-6-methyl-1H-pyrrolo[2,3-b]pyridine-2-carboxamide], the MIC stood at 0.037 µg/mL (≈ 0.102 µM).

`C[Si]1(C)CCC(NC(=O)c2cc3cc(C(F)(F)F)ncc3[nH]2)CC1` [MPL-321, N-(1,1-dimethylsilinan-4-yl)-5-(trifluoromethyl)-1H-pyrrolo[2,3-c]pyridine-2-carboxamide]: the MIC amounted to 0.519 µg/mL (≈ 1.46 µM).

Take `COc1cc(F)cc2[nH]c(C(=O)NC3CC[Si](C)(C)CC3)cc12` [MPL-196, N-(1,1-dimethylsilinan-4-yl)-6-fluoro-4-methoxy-1H-indole-2-carboxamide]: the minimum inhibitory concentration (MIC) was found to be 0.0048 µg/mL (≈ 0.0144 µM).

On to `Cc1cc(F)c2cc(C(=O)NC3CC[Si](C)(C)CC3)[nH]c2n1` [MPL-207, N-(1,1-dimethylsilinan-4-yl)-4-fluoro-6-methyl-1H-pyrrolo[2,3-b]pyridine-2-carboxamide], for which the MIC was determined as 0.0045 µg/mL (≈ 0.0141 µM).

With `Cc1cc(F)c2cc(C(=O)N[C@H]3C[C@H]4C[C@@H]([C@@H]3C)C4(C)C)[nH]c2n1` [MPL-043, 4-fluoro-6-methyl-N-[(1S,2S,3S,5R)-2,6,6-trimethylnorpinan-3-yl]-1H-pyrrolo[2,3-b]pyridine-2-carboxamide], the MIC amounted to 0.14 µg/mL (≈ 0.425 µM).

On to `Cc1cc2cc(C(=O)NC3CCCCCCC3)[nH]c2nc1C` [MPL-071, N-cyclooctyl-5,6-dimethyl-1H-pyrrolo[2,3-b]pyridine-2-carboxamide], for which the minimal inhibitory concentration (MIC) was 0.049 µg/mL (≈ 0.164 µM).

On to `O=C(NC1CCCCCCC1)c1cc2cc(Cl)c(F)nc2[nH]1` [MPL-065a, 5-chloro-N-cyclooctyl-6-fluoro-1H-pyrrolo[2,3-b]pyridine-2-carboxamide], for which the MIC turned out to be 0.013 µg/mL (≈ 0.0401 µM).

With `N#Cc1cncc2[nH]c(C(=O)NC3CCCCCCC3)cc12` [MPL-096, 4-cyano-N-cyclooctyl-1H-pyrrolo[2,3-c]pyridine-2-carboxamide], the MIC was 0.47 µg/mL (≈ 1.59 µM).

Consider `C[Si]1(C)CCC(NC(=O)c2cc3c(C#N)ccnc3[nH]2)CC1` [MPL-110, 4-cyano-N-(1,1-dimethylsilinan-4-yl)-1H-pyrrolo[2,3-b]pyridine-2-carboxamide], for which the minimum inhibitory concentration (MIC) was found to be 0.022 µg/mL (≈ 0.0704 µM).
